Assay results published in article PMC5804415, “Comparison of ^68Ga-DOTA-Siglec-9 and ^18F-Fluorodeoxyribose-Siglec-9: Inflammation Imaging and Radiation Dosimetry” (Contrast Media & Molecular Imaging, 2017).
Positions of bridges follow the written chain, without caps; N, C: chain ends. Residues, ends and D or L forms follow the SMILES beside them. *: point of attachment. X1 = O=C(CON=C[C@H](O)[C@H](O)[C@H](O)CF)*; AEEA = NCCOCCOCC(=O)O

How the values were obtained:
[1] = Ex vivo gamma counting biodistribution in atherosclerotic mice; details: mouse, total radioactivity, LDLR^−/−ApoB^100/100 mice (n = 19), 25 min after injection, mean ± SD
Protocol: (§1) Six-month-old atherosclerotic low-density lipoprotein receptor-deficient mice (weight, 27 ± 4.1 g; n = 19) expressing only apolipoprotein B100 (LDLR^−/−ApoB^100/100, strain #003000; Jackson Laboratory, Bar Harbor, ME, USA) were fed for 4 months with a Western-type diet. Two-month-old C57BL/6N mice (weight, 24 ± 2.2 g; n = 13) fed with a regular chow served as controls.
(§2) In PET studies, mice (19 atherosclerotic, 13 controls) were injected with 14 ± 4.4 MBq of ^18F-FDR-Siglec-9. Twenty-five minutes after ^18F-FDR-Siglec-9 injection, blood was drawn by cardiac puncture and the animals were killed. The thoracic aorta was excised and rinsed in saline to remove the blood. In addition, various other tissues were excised and patted dry. Samples of blood and urine were collected, and blood plasma was separated by centrifugation. […] The results were expressed as % ID/g and target-to-background ratio.

[2] = Ex vivo gamma counting biodistribution in control mice; details: mouse, total radioactivity, C57BL/6N control mice (n = 13), 25 min after injection, mean ± SD
Protocol: as §1, §2

[3] = system: atherosclerotic plaques in LDLR^−/−ApoB^100/100 mouse aorta; assay: Autoradiography of aortic cryosections of atherosclerotic mice; assay type: in vivo; details: LDLR^−/−ApoB^100/100 mice, n = 12, mean ± SD
Protocol: Autoradiography was used to study the distribution of radioactivity in the aorta in more detail, as described previously. After careful superimposition of the autoradiographs and H&E stained images, the count densities of 540 ROIs (185: plaques, 241: normal vessel walls, and 114: adventitia) were analyzed using Tina 2.1 software. The autoradiography results were calculated as the photostimulated luminescence per unit area (PSL/mm^2) normalized for injected radioactivity dose, and as ratios between the atherosclerotic plaque, normal vessel wall, and adventitia.

[4] = Human radiation dosimetry extrapolated from rat PET data (OLINDA/EXM); details: mean ± SD
Protocol: Absorbed doses of ^68Ga-DOTA-Siglec-9 and ^18F-FDR-Siglec-9 were calculated with the OLINDA/EXM version 1.0 software (organ level internal dose assessment and exponential modeling; Vanderbilt University, Nashville, TN, USA), which applies the MIRD schema (developed by the Medical Internal Radiation Dose committee of the Society of Nuclear Medicine) for radiation dose calculations in internal exposure. The software includes radionuclide information and selection of human body phantoms. The residence times derived from the rat data were integrated as the area under the time-activity curve. The residence times were converted into corresponding human values by multiplication with a factor to scale the organ and body weights: (WBody,rat/WOrgan,rat)×(WOrgan,human/WBody,human), where WBody,rat and WBody,human are the body weights of rat and human (a 70-kg male), respectively; and WOrgan,rat and WOrgan,human are the organ weights of rat and human (organ weights for a 70 kg male), respectively [14].

[5] = Ex vivo gamma counting biodistribution in rats with skin/muscle inflammation; details: Sprague-Dawley, rat, iv, total radioactivity; for tissue uptake at 1 h: Ex vivo biodistribution, rats with skin/muscle inflammation, i.v., 60 min after injection, gamma counting, mean ± SD
Excerpt: (§3) Twenty-four hours before the PET studies, Sprague-Dawley rats (weight, 350 ± 22 g; n = 16) were subcutaneously injected with turpentine oil (Sigma-Aldrich) to induce focal acute, sterile inflammation [12]. Before the injection, rats were shaved on the both forelegs. Inflamed area on the left foreleg contained both skin and muscle. The intact, contralateral side (right foreleg) was used as a control.
(§4) After PET imaging, rats were sacrificed and various tissues were excised and weighed, and their radioactivity levels were measured with a gamma counter (1480 Wizard 3′′, PerkinElmer, Turku, Finland). The ex vivo biodistribution results were expressed as a percentage of the injected radioactivity dose per gram of tissue (% ID/g) and target-to-background ratio.

[6] = system: rats with skin/muscle inflammation (turpentine oil); assay: as above; details: rats with skin/muscle inflammation, 60 min after injection, mean ± SD
Excerpt: as §3, §4

[7] = adipose tissue, WAT, 14 MBq, read-out: Ex vivo biodistribution, Adipose tissue, WAT
[8] = aorta, 14 MBq, read-out: Ex vivo biodistribution, Aorta
[9] = blood, 14 MBq, read-out: Ex vivo biodistribution, Blood
[10] = brain, 14 MBq, read-out: Ex vivo biodistribution, Brain
[11] = heart, 14 MBq, read-out: Ex vivo biodistribution, Heart
[12] = kidney, 14 MBq, read-out: Ex vivo biodistribution, Kidney
[13] = thymus, 14 MBq, read-out: Ex vivo biodistribution, Thymus
[14] = extrapolated from the rat PET data, OLINDA/EXM, 70 kg male
[15] = source organ, extrapolated from the rat PET data to 70 kg male

tissue uptake at 25 min ([1]; LDLR^−/−ApoB^100/100 (strain #003000), liver, read-out: Ex vivo biodistribution, Liver): 3 ± 0.97 %ID/g
tissue uptake at 25 min ([1]; LDLR^−/−ApoB^100/100 (strain #003000), lungs, read-out: Ex vivo biodistribution, Lungs): 2.4 ± 1.1 %ID/g
tissue uptake at 25 min ([1]; LDLR^−/−ApoB^100/100 (strain #003000), muscle, read-out: Ex vivo biodistribution, Muscle): 0.62 ± 0.2 %ID/g
tissue uptake at 25 min ([1]; LDLR^−/−ApoB^100/100 (strain #003000), pancreas, read-out: Ex vivo biodistribution, Pancreas): 0.82 ± 0.28 %ID/g
tissue uptake at 25 min ([1]; LDLR^−/−ApoB^100/100 (strain #003000), plasma, read-out: Ex vivo biodistribution, Plasma): 5.7 ± 1.4 %ID/g
tissue uptake at 25 min ([1]; LDLR^−/−ApoB^100/100 (strain #003000), small intestine, read-out: Ex vivo biodistribution, Small intestine): 1.6 ± 0.49 %ID/g
tissue uptake at 25 min ([1]; LDLR^−/−ApoB^100/100 (strain #003000), spleen, read-out: Ex vivo biodistribution, Spleen): 1.1 ± 0.28 %ID/g
tissue uptake at 25 min [1, 7]: 0.72 ± 0.66 %ID/g
tissue uptake at 25 min [1, 8]: 0.93 ± 0.38 %ID/g
tissue uptake at 25 min [1, 9]: 3.2 ± 0.82 %ID/g
tissue uptake at 25 min [1, 10]: 0.15 ± 0.06 %ID/g
tissue uptake at 25 min [1, 11]: 0.62 ± 0.28 %ID/g
tissue uptake at 25 min [1, 12]: 44 ± 26 %ID/g
tissue uptake at 25 min [1, 13]: 0.69 ± 0.19 %ID/g
excreta dose per gram or mL at 25 min ([1]; urine, 14 MBq): 470 ± 370 %ID/g
tissue uptake at 25 min ([2]; adipose tissue, BAT, 14 MBq, read-out: Ex vivo biodistribution, Adipose tissue, BAT): 0.45 ± 0.13 %ID/g
tissue uptake at 25 min [2, 7]: 0.63 ± 0.37 %ID/g
tissue uptake at 25 min [2, 8]: 0.52 ± 0.23 %ID/g
tissue uptake at 25 min [2, 9]: 2.1 ± 0.59 %ID/g
tissue uptake at 25 min [2, 10]: 0.11 ± 0.048 %ID/g
tissue uptake at 25 min [2, 11]: 0.34 ± 0.082 %ID/g
tissue uptake at 25 min [2, 12]: 43 ± 25 %ID/g
tissue uptake at 25 min ([2]; liver, read-out: Ex vivo biodistribution, Liver): 3.5 ± 2.3 %ID/g
tissue uptake at 25 min ([2]; lungs, read-out: Ex vivo biodistribution, Lungs): 1.5 ± 0.45 %ID/g
tissue uptake at 25 min ([2]; muscle, read-out: Ex vivo biodistribution, Muscle): 0.43 ± 0.13 %ID/g
tissue uptake at 25 min ([2]; pancreas, read-out: Ex vivo biodistribution, Pancreas): 0.57 ± 0.18 %ID/g
tissue uptake at 25 min ([2]; plasma, read-out: Ex vivo biodistribution, Plasma): 3.8 ± 0.62 %ID/g
tissue uptake at 25 min ([2]; small intestine, read-out: Ex vivo biodistribution, Small intestine): 0.79 ± 0.29 %ID/g
tissue uptake at 25 min ([2]; spleen, read-out: Ex vivo biodistribution, Spleen): 0.62 ± 0.32 %ID/g
tissue uptake at 25 min [2, 13]: 0.43 ± 0.089 %ID/g
excreta dose per gram or mL at 25 min ([2]; urine, 14 MBq): 610 ± 340 %ID/g
Normalized number of disintegrations, Total body ([4]; extrapolated from the rat PET data to 70 kg male): 1.8 ± 0.32 h
Human dose equivalent estimate, Adrenals [4, 14]: 0.020 ± 0.0029 mSv/MBq
Human dose equivalent estimate, Brain [4, 14]: 0.010 ± 0.0018 mSv/MBq
Human dose equivalent estimate, Breasts [4, 14]: 0.0086 ± 0.0011 mSv/MBq
Human dose equivalent estimate, Gallbladder wall [4, 14]: 0.017 ± 0.0014 mSv/MBq
Human dose equivalent estimate, Heart wall [4, 14]: 0.0085 ± 0.00045 mSv/MBq
Human dose equivalent estimate, Kidneys [4, 14]: 0.29 ± 0.13 mSv/MBq
Human dose equivalent estimate, Liver [4, 14]: 0.021 ± 0.0061 mSv/MBq
Human dose equivalent estimate, Lower large intestine wall [4, 14]: 0.014 ± 0.00091 mSv/MBq
Human dose equivalent estimate, Lungs [4, 14]: 0.0062 ± 0.00016 mSv/MBq
Human dose equivalent estimate, Muscle [4, 14]: 0.0074 ± 0.00025 mSv/MBq
Human dose equivalent estimate, Osteogenic cells [4, 14]: 0.016 ± 0.0019 mSv/MBq
Human dose equivalent estimate, Ovaries [4, 14]: 0.014 ± 0.00083 mSv/MBq
Human dose equivalent estimate, Pancreas [4, 14]: 0.018 ± 0.0015 mSv/MBq
Human dose equivalent estimate, Red marrow [4, 14]: 0.012 ± 0.00032 mSv/MBq
Human dose equivalent estimate, Skin [4, 14]: 0.0080 ± 0.0008 mSv/MBq
Human dose equivalent estimate, Small intestine [4, 14]: 0.015 ± 0.00049 mSv/MBq
Human dose equivalent estimate, Spleen [4, 14]: 0.018 ± 0.0022 mSv/MBq
Human dose equivalent estimate, Stomach wall [4, 14]: 0.014 ± 0.00041 mSv/MBq
Human dose equivalent estimate, Testes [4, 14]: 0.010 ± 0.0010 mSv/MBq
Human dose equivalent estimate, Thymus [4, 14]: 0.010 ± 0.0013 mSv/MBq
Human dose equivalent estimate, Thyroid [4, 14]: 0.0094 ± 0.0014 mSv/MBq
Human dose equivalent estimate, Total body [4, 14]: 0.012 ± 0.00012 mSv/MBq
Human dose equivalent estimate, Upper large intestine wall [4, 14]: 0.015 ± 0.00045 mSv/MBq
Human dose equivalent estimate, Urinary bladder wall [4, 14]: 0.081 ± 0.032 mSv/MBq
Human dose equivalent estimate, Uterus [4, 14]: 0.017 ± 0.0012 mSv/MBq
Human effective dose estimate ([4]; extrapolated from the rat PET data, OLINDA/EXM, 70 kg man): 0.022 ± 0.0042 mSv/MBq
Normalized number of disintegrations, Heart wall [4, 15]: 0.0026 ± 0.0010 h
Normalized number of disintegrations, Kidneys [4, 15]: 0.47 ± 0.21 h
Normalized number of disintegrations, Liver [4, 15]: 0.11 ± 0.043 h
Normalized number of disintegrations, Lungs [4, 15]: 0.0029 ± 0.0011 h
Normalized number of disintegrations, Muscle [4, 15]: 0.081 ± 0.042 h
Normalized number of disintegrations, Urinary bladder wall [4, 15]: 0.15 ± 0.070 h
tissue uptake at 1 h ([5]; adipose tissue, BAT, Adipose tissue, BAT): 0.049 ± 0.019 %ID/g
tissue uptake at 1 h ([5]; adipose tissue, WAT, Adipose tissue, WAT): 0.017 ± 0.0041 %ID/g
tissue uptake at 1 h ([5]; blood, Blood): 0.12 ± 0.023 %ID/g
tissue uptake at 1 h ([5]; bone (femoral), Bone (femoral)): 0.017 ± 0.01 %ID/g
tissue uptake at 1 h ([5]; bone marrow, Bone marrow): 0.056 ± 0.011 %ID/g
tissue uptake at 1 h ([5]; brain, Brain): 0.01 ± 0.003 %ID/g
tissue uptake at 1 h ([5]; control area (intact right foreleg), Control area): 0.11 ± 0.056 %ID/g
tissue uptake at 1 h ([5]; heart, Heart): 0.048 ± 0.01 %ID/g
tissue uptake at 1 h ([5]; inflamed area (left foreleg, skin and muscle), Inflamed area): 0.19 ± 0.053 %ID/g
tissue uptake at 1 h ([5]; kidneys, Kidneys): 14 ± 9.9 %ID/g
tissue uptake at 1 h ([5]; liver, Liver): 0.68 ± 0.12 %ID/g
tissue uptake at 1 h ([5]; lungs, Lungs): 0.11 ± 0.028 %ID/g
tissue uptake at 1 h ([5]; muscle, Muscle): 0.021 ± 0.0067 %ID/g
tissue uptake at 1 h ([5]; pancreas, Pancreas): 0.048 ± 0.011 %ID/g
tissue uptake at 1 h ([5]; plasma, Plasma): 0.23 ± 0.087 %ID/g
tissue uptake at 1 h ([5]; small intestine, Small intestine): 0.091 ± 0.029 %ID/g
tissue uptake at 1 h ([5]; spleen, Spleen): 0.06 ± 0.012 %ID/g
excreta dose per gram or mL at 1 h ([5]; urine, SD): 23 ± 14 %ID/g
tissue uptake at 1 h ([5]; male, testis, Testis): 0.046 ± 0.022 %ID/g
Compound: CC(C)C[C@@H]1NC(=O)CNC(=O)[C@H](CCCNC(=N)N)NC(=O)[C@H](Cc2c[nH]c3ccccc23)NC(=O)[C@H](CO)NC(=O)[C@H](CC(C)C)NC(=O)[C@H](CO)NC(=O)[C@H](CC(C)C)NC(=O)[C@H](CCCNC(=N)N)NC(=O)[C@H](C)NC(=O)[C@@H](NC(=O)COCCOCCNC(=O)CON=C[C@H](O)[C@H](O)[C@H](O)CF)CSSC[C@@H](C(=O)N2CCC[C@H]2C(=O)N[C@@H](CO)C(=O)N[C@@H](CCCCN)C(=O)O)NC(=O)[C@H](CC(C)C)NC(=O)[C@H]([C@@H](C)O)NC1=O [^18F-FDR-Siglec-9] ({X1-AEEA}-CARLSLSWRGLTLCPSK-OH; disulfide 1-14; N-terminus and C-terminus assumed)
plaque-to-adventitia ratio [3]: 2.2 ± 0.53
plaque-to-healthy vessel wall ratio [3]: 1.9 ± 0.23
inflamed-to-control area ratio (ex vivo gamma counting) [6]: 2.0 ± 0.70
inflammation-to-blood ratio (ex vivo gamma counting) [6]: 1.3 ± 0.16
